Molecules are shown by their SMILES.

Series [1] in a line: Preparation and characterisation of mRNA-encapsulating lipid nanoparticle (encapsulation efficiency, particle size). It is filed as physicochemical. The note with it: LNP encapsulating Fluc mRNA; Lipid:DSPC:CHO-HP:M-DMG-2000 48:10:40.5:1.5. In outline: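 Fluc mRNA in sodium acetate buffer mixed with ethanolic amino lipid:DSPC:CHO-HP:M-DMG-2000 (48:10:40.5:1.5 molar) by microfluidics, mRNA:lipid mass ratio 1:10, then dialysed 2 h against Tris-8% sucrose and 0.22 μm filtered. Final mRNA 0.2 g/L; particle size and encapsulation efficiency measured.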

The subject of series [2] is Female BALB/c mice. The series is described as follows: Performance evaluation of in vivo delivery of Fluc mRNA lipid nanoparticle (IVIS, body and organs). Conditions: Fluc mRNA LNP; for Liver (fluorescence expression intensity) / Spleen (fluorescence expression intensity): 75 μL IV; for Liver (fluorescence expression intensity) / Spleen (fluorescence expression intensity) / Total flux (fluorescence expression intensity) / (Spleen/Total Flux) * 100%: 6 hours after injection; for Liver (fluorescence expression intensity) / Spleen (fluorescence expression intensity) / Total flux (fluorescence expression intensity): IVIS; for Total flux (fluorescence expression intensity): 75 μL tail vein injection (IV); for (Spleen/Total Flux) * 100% / Multiple of spleen delivery/total delivery to amino lipid compound 118: IV; for Multiple of spleen delivery/total delivery to amino lipid compound 118: relative to amino lipid compound 118. In outline: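 Female BALB/c mice, 6-8 weeks, received 75 μL Fluc mRNA-LNP by tail-vein injection, 3 mice per formulation. At 6 h, 200 μL D-luciferin was injected, mice were anesthetized with isoflurane, and IVIS bioluminescence was imaged in body and organs.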

The test system of series [3] is Female BALB/c mice. As to the kind of experiment: IFN-γ Elispot cellular immunity test, spleen lymphocytes of mice immunized with IN002.5.1 mRNA LNP. The class given is in vivo. The note with it: 50 μL IM, spleen on 7th day after immunization, FIG. 2-4.

As to `CCCCCCC(CCCCCC)OC(=O)CCCCCCCCC(CCCCCCCCC(=O)OC(CCCCCC)CCCCCC)OC(=O)N(CCCN(C)C)CCC(=O)OCCCC` [Compound 264], the Encapsulation efficiency in series [1] amounted to 94.12%. In addition, in the series with Female BALB/c mice [2], the “Liver (fluorescence expression intensity)” value turned out to be 1.61E+08, the “Spleen (fluorescence expression intensity)” value amounted to 8.05E+06, the “Total flux (fluorescence expression intensity)” value is listed as 4.95E+08 and the “(Spleen/Total Flux) * 100%” value was 1.63%. In addition, the “Multiple of spleen delivery/total delivery to amino lipid compound 118” value in the series on Female BALB/c mice [2] was 4.78. Further, in the series on Female BALB/c mice [3], the “Cellular immunity effect (IFN-γ Elispot) compared to ALC0315” value is on record as “better cellular immunity effect”.

For the compound `CCCCCCCOC(=O)CCN(CCCN(C)C)C(=O)OC(CCCCCCCCC(=O)OC(CCCCCC)CCCCCC)CCCCCCCCC(=O)OC(CCCCCC)CCCCCC` [Compound 267], the Encapsulation efficiency in series [1] was 93.13%. Besides, in the series with Female BALB/c mice [2], the “Liver (fluorescence expression intensity)” value turned out to be 9.91E+07, the “Spleen (fluorescence expression intensity)” value is 1.54E+06, the “Total flux (fluorescence expression intensity)” value is listed as 4.01E+08 and the “(Spleen/Total Flux) * 100%” value is listed as 0.38%. In addition, the “Multiple of spleen delivery/total delivery to amino lipid compound 118” value with Female BALB/c mice [2] came out at 1.13. The “Cellular immunity effect (IFN-γ Elispot) compared to ALC0315” value in the series on Female BALB/c mice [3] is “better cellular immunity effect”.

In turn, `CCCCCCC(CCCCCC)OC(=O)CCCCCCCCC(CCCCCCCCC(=O)OC(CCCCCC)CCCCCC)OC(=O)N(CCCN(C)C)CC(=O)OCCCC` [Compound 270] displayed an Encapsulation efficiency in series [1] of 93.46%. In the series with Female BALB/c mice [2], the “Liver (fluorescence expression intensity)” value worked out at 1.34E+08, the “Spleen (fluorescence expression intensity)” value worked out at 7.36E+06, the “Total flux (fluorescence expression intensity)” value was determined as 4.40E+08 and the “(Spleen/Total Flux) * 100%” value stood at 1.67%. In addition, the “Multiple of spleen delivery/total delivery to amino lipid compound 118” value in the series on Female BALB/c mice [2] was determined as 4.92. In addition, in the series on Female BALB/c mice [3], the “Cellular immunity effect (IFN-γ Elispot) compared to ALC0315” value is on record as “better cellular immunity effect”.

In turn, `CCCCCCOC(=O)CN(CCCN(C)C)C(=O)OC(CCCCCCCCC(=O)OC(CCCCCC)CCCCCC)CCCCCCCCC(=O)OC(CCCCCC)CCCCCC` [Compound 272] returned an Encapsulation efficiency in series [1] of 93.96%. Also, in the series with Female BALB/c mice [2], the “Liver (fluorescence expression intensity)” value was 7.42E+07, the “Spleen (fluorescence expression intensity)” value came out at 3.03E+06, the “Total flux (fluorescence expression intensity)” value came out at 4.04E+08 and the “(Spleen/Total Flux) * 100%” value was determined as 0.75%. The “Multiple of spleen delivery/total delivery to amino lipid compound 118” value in the series on Female BALB/c mice [2] is given as 2.21. Also, the “Cellular immunity effect (IFN-γ Elispot) compared to ALC0315” value in the series on Female BALB/c mice [3] is on record as “better cellular immunity effect”.

`CCCCCCCOC(=O)CN(CCCN(C)C)C(=O)OC(CCCCCCCCC(=O)OC(CCCCCC)CCCCCC)CCCCCCCCC(=O)OC(CCCCCC)CCCCCC` [Compound 273] came in with an Encapsulation efficiency in series [1] of 87.42%. Also, in the series with Female BALB/c mice [2], the “Liver (fluorescence expression intensity)” value is recorded as 4.33E+07, the “Spleen (fluorescence expression intensity)” value turned out to be 2.37E+06, the “Total flux (fluorescence expression intensity)” value was found to be 1.78E+08 and the “(Spleen/Total Flux) * 100%” value was 1.33%. The “Multiple of spleen delivery/total delivery to amino lipid compound 118” value with Female BALB/c mice [2] amounted to 3.92. The “Cellular immunity effect (IFN-γ Elispot) compared to ALC0315” value in the series on Female BALB/c mice [3] is on record as “better cellular immunity effect”.

Source of the values: US20250250227A1, “AMINO LIPID COMPOUND, PREPARATION METHOD THEREFOR, COMPOSITION THEREOF AND USE THEREOF” (SHENZHEN SHENXIN BIOTECHNOLOGY CO., LTD., priority 2022, published 2025).
